Laboratory results as given in US20260159525A1, “TRICYCLIC HETEROCYCLES” (Merck Patent GmbH, priority 2021, published 2026).

Tests used:
Assay type in all cases: cell-based
[1] = tested on: YAP-TEAD interaction; experiment: SK-HEP-1 reporter assay (8x TEAD responsive elements driving NanoLuc luciferase); settings: Homo sapiens, SK-HEP1, SK-HEP-1 cells, 24 hour incubation
In short: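 SK-HEP-1 cells carrying a stably integrated 8× TEAD-element NanoLuc reporter, seeded 24 h before dosing, were treated in duplicate with a 10-point dose series (top 30 μM final, 0.3% DMSO) for 24 h at 37°C, 5% CO2. Luciferase activity read by NanoGlo luminescence; IC50 derived from it.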

[2] = tested on: NCI-H226 cells; experiment: Viability assay in NCI-H226 (Yap-dependent) cells, CyQUANT; settings: Homo sapiens, NCI-H226 YAP dependent cell line, 96 hour incubation, group symbols
Method: (§1) Viability Assay in NCI-H226 (Yap-Dependent) and SW620 Yap KO (Yap Independent) Cells
(§2) The ability of YAP-TEAD inhibitors to inhibit tumor cell growth was evaluated using two different cell lines: NCI-H226, which is a YAP dependent cell line, and SW620 cells, where YAP and TAZ were knocked out using CRISPR to generate a YAP independent cell line.
(§3) For the assay, cells were treated in duplicates with the test compounds in a 10-point dose, 1:3 dilution steps, with the top concentration starting at 30 μM (final concentration in assay). After a 96 hour incubation at 37° C., 95% rH, and 5% CO2, a cell-permeant DNA-binding dye that stains only healthy cells (CyQUANT®, Promega) was added to the cells, allowing the quantification of cell viability.
(§4) Cell Media: The NCI-H226 cells were cultured in the following media: RPMI 1640, +10% FBS, +1× GlutaMAX, +10 mM HEPES, +0.5% Pen/Strep. The SW620-KO cells were cultured in the following media: DMEM/F-12, +10% FBS, +1× GlutaMAX, +10 mM HEPES, +0.5% Pen/Strep.
(§5) Reagents: The reagents used are listed below:
(§6) Cell culture: The cells were examined using an inverted microscope to check for health, cell density, etc. To dissociate adherent cells, the monolayer of cells was washed once with pre-warmed PBS. After removing the PBS, 3 ml pre-warmed Accutase was added to a F75 flask, dispersed evenly and the flask was allowed to sit in incubator for ˜4-5 minutes.
(§7) When a single cell suspension was obtained, 7 ml of prewarmed growth media was added and resuspended with the cells. The cell suspension was transferred to a sterile 15 ml conical centrifuge tube, and spun for 5 min at 300×g, RT. The supernatant was discarded and the pellet was resuspended in 10 ml of pre-warmed growth media.
(§8) The total cell count was determined, and 20 μl of the desired cell number was added to each well of a 384 well plate using a Multidrop Combi. The plates were then incubated for 24 hours at 37° C., 95% rH, and 5% CO2.
(§9) Compound treatment: 24 hours after seeding, the cells were treated with compounds.
(§10) A 1:333 dilution of compounds, diluted in DMSO, was made to get a final concentration of 0.3% DMSO per well. To transfer the compounds to the assay plate, 120 nl was shot from Labcyte low dead volume plates to the cell plates containing 20 μl media/well with the ECHO 555 liquid handling system. After treatment, the cells were fed with 20 μl fresh pre-warmed assay media using a Multidrop combi.
(§11) The assay plates were then incubated for 96 h at 37° C., 95% rH, and 5% CO2.
(§12) 96 h after treatment 30 μl of CyQuant® reagent was added to the assay plates using a Multidrop combi in the dark. The plates were then incubated for 1 hour at 37° C., 95% rH and 5% CO2. Thereafter, the assay plates were removed from the incubator and allowed to equilibrate to RT for 30 min in the dark without lid. Finally, they were measured using an EnVision microplate reader with a FITC bottom read program.

[3] = tested on: SW620 Yap KO cells; experiment: Viability assay in SW620 Yap KO (Yap independent) cells, CyQUANT; settings: Homo sapiens, SW-620, SW620 YAP and TAZ knocked out (YAP independent), 96 hour incubation
Method: as §1, §2, §3, §4, §5, §6, §7, §8, §9, §10, §11, §12

[4] = n.d. (x) = not detectable below threshold x
[5] = number, or n.d. (x) = not detectable below threshold x

Cn1cc2c3cc(C(=O)O)sc3n(-c3ccc(C(F)(F)F)cc3)c2n1 [Compound 19, 4-methyl-7-[4-(trifluoromethyl)phenyl]-9-thia-4,5,7-triazatricyclo[6.3.0.0^2,6]undeca-1(8),2,5,10-tetraene-10-carboxylic acid]
IC50 ([1]; group symbols): 1 to 10 nM | IC50 [2]: 1 to 100 nM | IC50 [3, 4]: > 30 µM

Cn1cc2c3sc(C(=O)O)cc3n(C[C@H]3C[C@H](C(F)(F)F)C3)c2n1 [Compound 37, 10-methyl-7-{[(1r,3r)-3-(trifluoromethyl)cyclobutyl]methyl}-3-thia-7,9,10-triazatricyclo[6.3.0.0^2,6]undeca-1(11),2(6),4,8-tetraene-4-carboxylic acid]
IC50 ([1]; group symbols): 100 to 10000 nM | IC50 [2]: 1000 to 10000 nM | IC50 [3, 4]: > 30 µM

Cn1cc2c3cc(C(=O)NC4(CO)CC4)sc3n(-c3ccc(C(F)(F)F)cc3)c2n1 [Compound 91, N-[1-(hydroxymethyl)cyclopropyl]-4-methyl-7-[4-(trifluoromethyl)phenyl]-9-thia-4,5,7-triazatricyclo[6.3.0.0^2,6]undeca-1(8),2,5,10-tetraene-10-carboxamide]
IC50 [1, 5]: > 30000 nM | IC50 [2]: 1 to 100 nM | IC50 [3, 4]: > 30 µM

C[C@@H](O)CNC(=O)c1cc2c3cn(C)nc3n(-c3ccc(C(F)(F)F)cc3)c2s1 [Compound 44, N-[(2R)-2-hydroxypropyl]-4-methyl-7-[4-(trifluoromethyl)phenyl]-9-thia-4,5,7-triazatricyclo[6.3.0.0^2,6]undeca-1(8),2,5,10-tetraene-10-carboxamide]
IC50 [1, 5]: > 9500 nM | IC50 [2]: 1 to 100 nM | IC50 [3, 4]: > 3 µM

CC[C@H](CO)NC(=O)c1cc2c3cn(C)nc3n(-c3ccc(C(F)(F)F)cc3)c2s1 [Compound 93, N-[(2R)-1-hydroxybutan-2-yl]-4-methyl-7-[4-(trifluoromethyl)phenyl]-9-thia-4,5,7-triazatricyclo[6.3.0.0^2,6]undeca-1(8),2,5,10-tetraene-10-carboxamide]
IC50 ([1]; group symbols): 10 to 100 nM | IC50 [2]: 1 to 100 nM | IC50 [3, 4]: > 3 µM

Cn1nc2c3cc(C(=O)O)sc3n(-c3ccc(C(F)(F)F)cc3)c2n1 [Compound 95, 4-methyl-7-[4-(trifluoromethyl)phenyl]-9-thia-3,4,5,7-tetraazatricyclo[6.3.0.0^2,6]undeca-1(8),2,5,10-tetraene-10-carboxylic acid]
IC50 ([1]; group symbols): 1 to 10 nM | IC50 [2]: 1 to 100 nM | IC50 [3, 4]: > 30 µM

CNC(=O)c1cc2c3nn(C)nc3n(-c3ccc(C(F)(F)F)cc3)c2s1 [Compound 102, N,4-dimethyl-7-[4-(trifluoromethyl)phenyl]-9-thia-3,4,5,7-tetraazatricyclo[6.3.0.0^2,6]undeca-1(8),2,5,10-tetraene-10-carboxamide]
IC50 ([1]; group symbols): 10 to 100 nM | IC50 [2]: 1 to 100 nM | IC50 [3, 4]: > 30 µM

CCNC(=O)c1cc2c3cn(C)nc3n(-c3ccc(C(F)(F)F)cc3)c2s1 [Compound 46, N-ethyl-4-methyl-7-[4-(trifluoromethyl)phenyl]-9-thia-4,5,7-triazatricyclo[6.3.0.0^2,6]undeca-1(8),2,5,10-tetraene-10-carboxamide]
IC50 ([1]; group symbols): 1 to 10 nM | IC50 [2]: 1 to 100 nM | IC50 [3, 4]: > 3 µM

Cn1cc2c3cc(C(=O)N[C@@H](CCO)c4cncs4)sc3n(-c3ccc(C(F)(F)F)cc3)c2n1 (single isomer, unassigned) [Compound 41]
IC50 ([1]; group symbols): 100 to 10000 nM | IC50 [2]: 100 to 1000 nM | IC50 [3, 4]: > 3 µM

CNC(=O)c1cc2c(s1)c1c(ncn1C)n2-c1ccc(C(F)(F)F)cc1 [Compound 21, N,3-dimethyl-7-[4-(trifluoromethyl)phenyl]-11-thia-3,5,7-triazatricyclo[6.3.0.0^2,6]undeca-1(8),2(6),4,9-tetraene-10-carboxamide]
IC50 ([1]; group symbols): 100 to 10000 nM | IC50 [2]: 100 to 1000 nM | IC50 ([3]; group symbols): 1 to 10 µM

Cc1nc2c3sc(C(=O)O)cc3n(-c3ccc(C(F)(F)F)cc3)c2s1 [Compound 22, 4-methyl-7-[4-(trifluoromethyl)phenyl]-5,11-dithia-3,7-diazatricyclo[6.3.0.0^2,6]undeca-1(8),2(6),3,9-tetraene-10-carboxylic acid]
IC50 ([1]; group symbols): 10 to 100 nM | IC50 [2]: 100 to 1000 nM | IC50 [3, 4]: > 30 µM

C[C@H](CO)NC(=O)c1cc2c3cn(C)nc3n(-c3ccc(OC(F)F)cn3)c2s1 [Compound 123, 7-[5-(difluoromethoxy)pyridin-2-yl]-N-[(2R)-1-hydroxypropan-2-yl]-4-methyl-9-thia-4,5,7-triazatricyclo[6.3.0.0^2,6]undeca-1(8),2,5,10-tetraene-10-carboxamide]
IC50 [1, 5]: > 300 nM | IC50 [2]: 1 to 100 nM | IC50 [3, 4]: > 30 µM

C[C@H](O)CNC(=O)c1cc2c3cn(C)nc3n(-c3ccc(C(F)(F)F)cc3)c2s1 [Compound 43, N-[(2S)-2-hydroxypropyl]-4-methyl-7-[4-(trifluoromethyl)phenyl]-9-thia-4,5,7-triazatricyclo[6.3.0.0^2,6]undeca-1(8),2,5,10-tetraene-10-carboxamide]
IC50 [1, 5]: > 9500 nM | IC50 [2]: 1 to 100 nM | IC50 [3, 4]: > 3 µM

Cn1ccc(C(CO)NC(=O)c2cc3c4cn(C)nc4n(-c4ccc(C(F)(F)F)cc4)c3s2)n1 (stereo not drawn) [Compound 96, N-[2-hydroxy-1-(1-methyl-1H-pyrazol-3-yl)ethyl]-4-methyl-7-[4-(trifluoromethyl)phenyl]-9-thia-4,5,7-triazatricyclo[6.3.0.0^2,6]undeca-1(8),2,5,10-tetraene-10-carboxamide]
IC50 ([1]; group symbols): 10 to 100 nM | IC50 [2]: 1 to 100 nM | IC50 [3, 4]: > 30 µM

CNC(=O)c1cc2c3cn(C)nc3n(-c3ccc(OC(F)(F)F)cc3)c2s1 [Compound 49, N,4-dimethyl-7-[4-(trifluoromethoxy)phenyl]-9-thia-4,5,7-triazatricyclo[6.3.0.0^2,6]undeca-1(8),2,5,10-tetraene-10-carboxamide]
IC50 ([1]; group symbols): 10 to 100 nM | IC50 [2]: 1 to 100 nM | IC50 [3, 4]: > 3 µM

Cn1cc2c3cc(C(=O)O)sc3n(-c3ccc(C(F)F)cn3)c2n1 [Compound 117, 7-[5-(difluoromethyl)pyridin-2-yl]-4-methyl-9-thia-4,5,7-triazatricyclo[6.3.0.0^2,6]undeca-1(8),2,5,10-tetraene-10-carboxylic acid]
IC50 ([1]; group symbols): 100 to 10000 nM | IC50 [2]: 1000 to 10000 nM | IC50 [3, 4]: > 30 µM

Cn1cc2c3cc(C(=O)N[C@@H](CO)c4ccccn4)sc3n(-c3ccc(OC(F)F)cn3)c2n1 [Compound 122, 7-[5-(difluoromethoxy)pyridin-2-yl]-N-[(1R)-2-hydroxy-1-(pyridin-2-yl)ethyl]-4-methyl-9-thia-4,5,7-triazatricyclo[6.3.0.0^2,6]undeca-1(8),2,5,10-tetraene-10-carboxamide]
IC50 ([1]; group symbols): 100 to 10000 nM | IC50 [2]: 1 to 100 nM | IC50 [3, 4]: > 30 µM

C[C@H](CO)NC(=O)c1cc2c3cn(C)nc3n(-c3ccc(OC(F)(F)F)cc3)c2s1 [Compound 50, N-[(2R)-1-hydroxypropan-2-yl]-4-methyl-7-[4-(trifluoromethoxy)phenyl]-9-thia-4,5,7-triazatricyclo[6.3.0.0^2,6]undeca-1(8),2,5,10-tetraene-10-carboxamide]
IC50 ([1]; group symbols): 100 to 10000 nM | IC50 [2]: 1 to 100 nM | IC50 [3, 4]: > 30 µM

Cn1cc2c3cc(C(=O)NCCN4CCOCC4)sc3n(-c3ccc(C(F)(F)F)cc3)c2n1 [Compound 65, 4-methyl-N-[2-(morpholin-4-yl)ethyl]-7-[4-(trifluoromethyl)phenyl]-9-thia-4,5,7-triazatricyclo[6.3.0.0^2,6]undeca-1(8),2,5,10-tetraene-10-carboxamide]
IC50 [1, 5]: > 300 nM | IC50 [2]: 100 to 1000 nM | IC50 [3, 4]: > 3 µM
